This is an account of results in patent publication US5683714A, “Liposomal cyclosporin pharmaceutical formulation” (NeXstar Pharmaceuticals, Inc., priority 1995, dated 1997).

Assay [1] deals with sensitive L1210 murine leukemia cells. In words: Multiple drug resistance, 3H-Thymidine uptake. Type of assay: cell-based. The conditions noted are these: Mus musculus, daunorubicin alone. On the procedure:
(§1) Multiple drug resistance (MDR) was tested in vitro using resistant and sensitive L1210 murine leukemia cells.
(§2) The final concentration of daunorubicin in each well was 0, 0.3, 1, 3, 10, 30, 100 or 1000 ng/ml. […] Fifty microliters of each daunorubicin concentration was added to one well of a flat bottom 96-well culture plate. […] Each drug combination was tested in triplicate.
(§3) The resistant and sensitive cells to be added to each well were grown overnight in a CO2 incubator at 37° C. in RPMI-1640 (10% fetal calf serum and 1% pen-strep). The cells were centrifuged at 1000 rpm for 10 minutes. The cell pellet was resuspended in RPMI-1640 (20% fetal calf serum and 2% pen-strep) and adjusted to 1×10^5 cells/ml. The cells were then added to the wells (100 μl (1×10^4 cells)/well) containing the drug combinations and incubated for 24 hours at 37° C. in a CO2 incubator. Positive control wells contained only cells and media and negative control wells contained cells, media, and 20 μl of 1.5M Tris buffer.
(§4) After 20 hours of incubation, the cells were pulsed with 0.5μ Cu of ^3 H-Thymidine per well. The samples were incubated for another 4 hours. The cells in each well were then harvested using a Skatron Harvester and counted in a beta liquid scintillation counter (LKB).

The test system of assay [2] is resistant L1210 murine leukemia cells. Kind of assay: Multiple drug resistance, 3H-Thymidine uptake. Type of assay: cell-based. As to conditions: Mus musculus, L1210, read-out: IC50 in Resistant Cells. On the procedure: as §1, §2, §3, §4

Consider `COc1cccc2c1C(=O)c1c(O)c3c(c(O)c1C2=O)C[C@@](O)(C(C)=O)C[C@@H]3O[C@H]1C[C@H](N)[C@H](O)[C@H](C)O1` [Daunorubicin], for which the 50% inhibitory concentration (IC50) (in general, the concentration that gives 50% inhibition) in assay [1] is 0.47 µg/mL; in assay [2], 0.722 µg/mL.
